Consider eight compounds from ChEMBL document CHEMBL5620353, “Novel antifungal triazoles with alkynyl-methoxyl side chains: Design, synthesis, and biological activity evaluation” (Eur J Med Chem, 2023).

What all share (format): functional
In test [1] the test system is Candida albicans. Put plainly: Antifungal activity against Candida albicans SC5314 assessed as inhibition of fungal growth incubated for 48 hrs by microbroth dilution method.
Test [2] relates to Candida albicans. As to the kind of experiment: Antifungal activity against Candida albicans 10231 assessed as inhibition of fungal growth incubated for 48 hrs by microbroth dilution method.
Test [3] concerns Nakaseomyces glabratus. Put plainly: Antifungal activity against Candida glabrata 537 assessed as inhibition of fungal growth incubated for 48 hrs by microbroth dilution method.
Another test deals with Candida parapsilosis. As to the kind of experiment: Antifungal activity against Candida parapsilosis 22019 assessed as inhibition of fungal growth incubated for 48 hrs by microbroth dilution method. To be noted: Lodderomyces parapsilosis.
The next test relates to Pichia kudriavzevii. As to the kind of experiment: Antifungal activity against Candida krusei 4996 assessed as inhibition of fungal growth incubated for 48 hrs by microbroth dilution method.
For a further test, the system named is Candida tropicalis. Put plainly: Antifungal activity against Candida tropicalis 8915 assessed as inhibition of fungal growth incubated for 48 hrs by microbroth dilution method.
A further test concerns Cryptococcus neoformans. Put plainly: Antifungal activity against Cryptococcus neoformans 32,609 assessed as inhibition of fungal growth incubated for 72 hrs by microbroth dilution method.
Another test has as its system Aspergillus fumigatus. As to the kind of experiment: Antifungal activity against Aspergillus fumigatus 7544 assessed as inhibition of fungal growth incubated for 72 hrs by microbroth dilution method.
Test [4] has as its system Nakaseomyces glabratus. Put plainly: Potency index, ratio of fluconazole MIC to test compound MIC for antifungal activity against Candida glabrata 537 assessed as inhibition of fungal growth incubated for 48 hrs by microbroth dilution method.
Test [5] has as its system Saccharomyces cerevisiae. As to the kind of experiment: Antifungal activity against recombinant Saccharomyces cerevisiae Y525 overexpressing CaMdr1 assessed as inhibition of fungal growth incubated for 48 hrs by microbroth dilution method.
Test [6] has as its system Saccharomyces cerevisiae. Put plainly: Antifungal activity against recombinant Saccharomyces cerevisiae Y570 overexpressing CaCdr1 assessed as inhibition of fungal growth incubated for 48 hrs by microbroth dilution method.
The subject of test [7] is Saccharomyces cerevisiae. Put plainly: Antifungal activity against recombinant Saccharomyces cerevisiae Y2411 overexpressing ScErg11 assessed as inhibition of fungal growth incubated for 48 hrs by microbroth dilution method.
Test [8] has as its system Saccharomyces cerevisiae. Put plainly: Antifungal activity against recombinant Saccharomyces cerevisiae Y2300 overexpressing ScErg11 assessed as inhibition of fungal growth incubated for 48 hrs by microbroth dilution method.
Test [9] has as its system Saccharomyces cerevisiae. Put plainly: Antifungal activity against recombinant Saccharomyces cerevisiae Y2301 overexpressing ScErg11 Y140F assessed as inhibition of fungal growth incubated for 48 hrs by microbroth dilution method.
In test [10] the test system is Saccharomyces cerevisiae. Put plainly: Antifungal activity against recombinant Saccharomyces cerevisiae Y2513 overexpressing ScErg11 Y140H assessed as inhibition of fungal growth incubated for 48 hrs by microbroth dilution method.
The subject of test [11] is Saccharomyces cerevisiae. Put plainly: Antifungal activity against recombinant Saccharomyces cerevisiae Y2374 overexpressing CgErg11 assessed as inhibition of fungal growth incubated for 48 hrs by microbroth dilution method.
For test [12], the system named is Saccharomyces cerevisiae. Put plainly: Antifungal activity against recombinant Saccharomyces cerevisiae Y2462 overexpressing ScErg11 ScNcp1 assessed as inhibition of fungal growth incubated for 48 hrs by microbroth dilution method.
Test [13] concerns Saccharomyces cerevisiae. Put plainly: Antifungal activity against recombinant Saccharomyces cerevisiae Y2459 overexpressing CaErg11 CaCpr assessed as inhibition of fungal growth incubated for 48 hrs by microbroth dilution method.
Test [14] has as its system Saccharomyces cerevisiae. Put plainly: Antifungal activity against recombinant Saccharomyces cerevisiae Y2721 overexpressing CpErg11 CpCpr assessed as inhibition of fungal growth incubated for 48 hrs by microbroth dilution method.
The subject of test [15] is Saccharomyces cerevisiae. Put plainly: Antifungal activity against recombinant Saccharomyces cerevisiae Y2716 overexpressing CpErg11 Y132F CpCpr assessed as inhibition of fungal growth incubated for 48 hrs by microbroth dilution method.
For test [16], the system named is Candida albicans. Put plainly: Antifungal activity against fluconazole-resistant Candida albicans 901 assessed as inhibition of fungal growth incubated for 48 hrs by microbroth dilution method.
Test [17] concerns Candida albicans. Put plainly: Antifungal activity against fluconazole-resistant Candida albicans 904 assessed as inhibition of fungal growth incubated for 48 hrs by microbroth dilution method.
Test [18] deals with [Candida] auris. As to the kind of experiment: Antifungal activity against fluconazole-resistant Candida auris 891 assessed as inhibition of fungal growth incubated for 48 hrs by microbroth dilution method. To be noted: Candidozyma auris.
Test [19] deals with [Candida] auris. As to the kind of experiment: Antifungal activity against fluconazole-resistant Candida auris 918 assessed as inhibition of fungal growth incubated for 48 hrs by microbroth dilution method. The settings on record: Candidozyma auris.
The test system of test [20] is [Candida] auris. As to the kind of experiment: Antifungal activity against fluconazole-resistant Candida auris 919 assessed as inhibition of fungal growth incubated for 48 hrs by microbroth dilution method. To be noted: Candidozyma auris.

Converted amounts (≈) assume the structure as drawn.

For `C[C@@H](OCC#Cc1ccccn1)[C@](O)(Cn1cncn1)c1ccc(F)cc1F`, the MIC in the test on Candida albicans [1] is not above 0.125 µg/mL; with Candida albicans [2], 32 µg/mL (≈ 83.2 µM); with Nakaseomyces glabratus [3] it was not above 0.125 µg/mL; in the test with Candida parapsilosis, 0.5 µg/mL (≈ 1.3 µM); in the test on Pichia kudriavzevii, 16 µg/mL (≈ 41.6 µM); with Candida tropicalis, more than 64 µg/mL. Moreover, the MIC was determined as 0.5 µg/mL (≈ 1.3 µM) in the test with Cryptococcus neoformans and 8 µg/mL (≈ 20.8 µM) with Aspergillus fumigatus. Further, in the test on Nakaseomyces glabratus [4], the Ratio entry was “>=8”.

For `C[C@@H](OCC#Cc1cccnc1)[C@](O)(Cn1cncn1)c1ccc(F)cc1F`, the minimum inhibitory concentration (MIC) was not above 0.125 µg/mL in the test on Candida albicans [1]; 32 µg/mL (≈ 83.2 µM) in the test with Candida albicans [2]; not above 0.125 µg/mL with Nakaseomyces glabratus [3]; not above 0.125 µg/mL with Candida parapsilosis; 4 µg/mL (≈ 10.4 µM) in the test on Pichia kudriavzevii; 64 µg/mL (≈ 166 µM) in the test with Candida tropicalis. Further, the results for the MIC in the test on Cryptococcus neoformans and in the test on Aspergillus fumigatus were not above 0.125 µg/mL and 4 µg/mL (≈ 10.4 µM), respectively. In addition, in the test on Nakaseomyces glabratus [4], the Ratio result is recorded as “>=8”.

Take `C[C@@H](OCC#Cc1cc(F)ccc1F)[C@](O)(Cn1cncn1)c1ccc(F)cc1F`: the MIC was not above 0.125 µg/mL with Candida albicans [1]; 8 µg/mL (≈ 19.1 µM) in the test on Candida albicans [2]; not above 0.125 µg/mL with Nakaseomyces glabratus [3]; 2 µg/mL (≈ 4.77 µM) with Candida parapsilosis; 8 µg/mL (≈ 19.1 µM) with Pichia kudriavzevii; 8 µg/mL (≈ 19.1 µM) with Candida tropicalis. Further, the minimum inhibitory concentration (MIC) in the test with Cryptococcus neoformans was determined as 1 µg/mL (≈ 2.38 µM); with Aspergillus fumigatus, 2 µg/mL (≈ 4.77 µM). The Ratio entry in the test with Nakaseomyces glabratus [4] was “>=8”.

Regarding `C[C@@H](OCC#Cc1ccccc1F)[C@](O)(Cn1cncn1)c1ccc(F)cc1F`, the MIC with Candida albicans [1] is not above 0.125 µg/mL; in the test on Candida albicans [2] it was 8 µg/mL (≈ 19.9 µM); in the test with Nakaseomyces glabratus [3], not above 0.125 µg/mL; in the test with Candida parapsilosis it was 2 µg/mL (≈ 4.98 µM); with Pichia kudriavzevii, 8 µg/mL (≈ 19.9 µM); in the test on Candida tropicalis, 64 µg/mL (≈ 159 µM). For the same compound, the MIC turned out to be 0.5 µg/mL (≈ 1.25 µM) in the test with Cryptococcus neoformans and 4 µg/mL (≈ 9.97 µM) with Aspergillus fumigatus. In addition, the Ratio result in the test on Nakaseomyces glabratus [4] is recorded as “>=8”.

As to `CC(=O)N1CCN(c2ccc(OCC3COC(Cn4ccnc4)(c4ccc(Cl)cc4Cl)O3)cc2)CC1` (centres undefined) [KETOCONAZOLE], the MIC in the test on Saccharomyces cerevisiae [5] was 1 µg/mL; with Saccharomyces cerevisiae [6], more than 64 µg/mL; in the test on Saccharomyces cerevisiae [7], 0.5 µg/mL; in the test on Saccharomyces cerevisiae [8], 2 µg/mL; with Saccharomyces cerevisiae [9], 2 µg/mL; in the test on Saccharomyces cerevisiae [10] it was 1 µg/mL. Also, the MIC in the test with Saccharomyces cerevisiae [11] was found to be 1 µg/mL; with Saccharomyces cerevisiae [12], 1 µg/mL; in the test on Saccharomyces cerevisiae [13], 0.5 µg/mL; with Saccharomyces cerevisiae [14] it was 0.5 µg/mL; in the test on Saccharomyces cerevisiae [15] it was 2 µg/mL.

Take `C[C@@H](OCC#Cc1ccc(Cl)cc1)[C@](O)(Cn1cncn1)c1ccc(F)cc1F`: the MIC with Candida albicans [1] is not above 0.125 µg/mL; in the test with Candida albicans [2], 16 µg/mL (≈ 38.3 µM); in the test with Nakaseomyces glabratus [3], not above 0.125 µg/mL; in the test with Candida parapsilosis, 0.5 µg/mL (≈ 1.2 µM); with Pichia kudriavzevii, 16 µg/mL (≈ 38.3 µM); with Candida tropicalis it was not above 0.125 µg/mL. The MIC in the test on Cryptococcus neoformans came to 1 µg/mL (≈ 2.39 µM); in the test on Aspergillus fumigatus, 4 µg/mL (≈ 9.57 µM); in the test with Candida albicans [16], 32 µg/mL (≈ 76.6 µM); in the test on Candida albicans [17], 32 µg/mL (≈ 76.6 µM); in test [Candida] auris [18] it was 4 µg/mL (≈ 9.57 µM); in test [Candida] auris [19] it was 16 µg/mL (≈ 38.3 µM). Further, the MIC in test [Candida] auris [20] was 8 µg/mL (≈ 19.1 µM). In addition, in the test with Nakaseomyces glabratus [4], the Ratio result was “>=8”.

As to `C[C@@H](OCC#Cc1cccc(F)c1)[C@](O)(Cn1cncn1)c1ccc(F)cc1F`, the MIC in the test on Candida albicans [1] was not above 0.125 µg/mL; in the test on Candida albicans [2] it was 16 µg/mL (≈ 39.9 µM); in the test with Nakaseomyces glabratus [3], not above 0.125 µg/mL; with Candida parapsilosis it was 1 µg/mL (≈ 2.49 µM); in the test with Pichia kudriavzevii it was 16 µg/mL (≈ 39.9 µM); in the test on Candida tropicalis it was 32 µg/mL (≈ 79.7 µM). Further, the MIC in the test on Cryptococcus neoformans and in the test on Aspergillus fumigatus was 1 µg/mL (≈ 2.49 µM) each time. Further, the Ratio entry in the test on Nakaseomyces glabratus [4] is reported as “>=8”.

Turning to `C[C@@H](OCC#Cc1cc(Cl)ccc1Cl)[C@](O)(Cn1cncn1)c1ccc(F)cc1F`, the MIC in the test on Candida albicans [1] was 0.25 µg/mL (≈ 0.553 µM); in the test with Candida albicans [2] it was more than 64 µg/mL; in the test on Nakaseomyces glabratus [3], not above 0.125 µg/mL; with Candida parapsilosis, 4 µg/mL (≈ 8.84 µM); in the test with Pichia kudriavzevii it was 32 µg/mL (≈ 70.8 µM); with Candida tropicalis, more than 64 µg/mL. Also, the figures for the MIC in the test on Cryptococcus neoformans and in the test on Aspergillus fumigatus were 2 µg/mL (≈ 4.42 µM) and 16 µg/mL (≈ 35.4 µM), respectively. Also, the Ratio result in the test on Nakaseomyces glabratus [4] is reported as “>=8”.
